System: mouse and human plasma stability, LC/MS/MS, 180 min
Assay: plasma degradation of screening hits, two species – biochemical, mouse and human plasma, ADME assay for GPR30 and estrogen receptor ligands, late-stage follow-up (AID 623907)
Conditions: at 1 µM, stronger effect = higher value

A percent remaining of 94.5% and a percent remaining (measured here: human plasma stability, 180 min) of 100% were found for `COc1cc([N+](=O)[O-])cc2c1NC(C1CC=CCC1)C1CC=CC21` (configuration not stated) in this work.
